According to the supplement of paper PMC10331698:
± gives the standard deviation of the averaged measurements.

What was measured:
Assay in all cases: level (log10 ratio to DMSO vehicle control); higher = higher biomarker level / cell amount than vehicle control
[1] = compound: C=CC(=O)OCC(F)(F)C(F)(F)C(F)(F)C(F)(F)COC(=O)C=C [1H,1H,6H,6H-Perfluorohexane-1,6-diol diacrylate]; details: 6700 nM; in DMSO
Method: (§1)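 BioMAP Diversity Plus panel of 12 human primary cell co-culture systems (3C, 4H, LPS, SAg, BT, BF4T, BE3C, CASM3C, HDF3CGF, KF3CT, MyoF, Mphg). Compounds were added 1 h before stimulation and left for 24 h (MyoF 48 h; BT 72 h for soluble read-outs or 6 d for IgG). Biomarkers were read by ELISA, cytotoxicity by SRB, PBMC viability and proliferation by Alamar Blue. Each well value was divided by the mean of 8 DMSO control wells on the same plate and log10 transformed; duplicate blinded samples were tested at 4 concentrations.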

[2] = compound: FC(F)(I)C(F)(F)C(F)(F)C(F)(F)C(F)(F)C(F)(F)I [1,6-Diiodoperfluorohexane]; details: 6700 nM; in DMSO
Method: as §1

[3] = compound: O=C(CC(=O)C(F)(F)C(F)(F)C(F)(F)F)c1cccs1 [(Perfluorobutyryl)-2-thenoylmethane]; details: in DMSO
Method: as §1

[4] = compound: O=C(Cl)C(F)(F)C(F)(F)C(F)(F)C(=O)Cl [Hexafluoroglutaryl chloride]; details: in DMSO
Method: as §1

[5] = compound: O=C(O)C(F)(F)C(F)(F)C(=O)O [Tetrafluorosuccinic acid]; details: in DMSO
Method: as §1

[6] = compound: O=C(O)C(F)(F)C(F)(F)C(F)(F)C(F)(F)C(F)(F)C(F)(F)C(F)(F)F [Perfluorooctanoic acid]; details: in DMSO
Method: as §1

[7] = compound: OCC(F)(F)C(F)(F)C(F)(F)C(F)(F)C(F)(F)C(F)(F)C(F)(F)C(F)(F)C(F)(F)C(F)(F)C(F)(F)F [11:1 Fluorotelomer alcohol]; details: in DMSO
Method: as §1

[8] = compound: OCCCC(F)(F)C(F)(F)C(F)(F)C(F)(F)C(F)(F)C(F)(F)C(F)(F)C(F)(F)F [3-(Perfluorooctyl)propanol]; details: 6700 nM; in DMSO
Method: as §1

[9] = compound: OCCCCC(F)(F)C(F)(F)C(F)(F)C(F)(F)F [4:4 Fluorotelomer alcohol]; details: in DMSO
Method: as §1

CASM3C:PAI-I
level (log10) [1]: 0.0005 ± 0.0021 | level (log10) [2]: 0.011 | level (log10) ([3]; 6700 nM): -0.0135 ± 0.005 | level (log10) ([3]; 20000 nM): -0.008 ± 0.0057 | level (log10) ([4]; 6700 nM): -0.0135 ± 0.021 | level (log10) ([4]; 20000 nM): 0.0025 ± 0.0078 | level (log10) ([4]; 60000 nM): 0.0065 ± 0.0021 | level (log10) ([5]; 6700 nM): 0.0025 ± 0.0021 | level (log10) ([5]; 20000 nM): 0.009 ± 0.0042 | level (log10) ([5]; 60000 nM): 0.0105 ± 0.0035 | level (log10) ([6]; 6700 nM): 0.003 ± 0.0085 | level (log10) ([6]; 20000 nM): -0.0005 ± 0.012 | level (log10) ([6]; 60000 nM): 0.01 ± 0.018 | level (log10) ([7]; 1100 nM): -0.001 ± 0.0071 | level (log10) ([7]; 3300 nM): -0.0055 ± 0.005 | level (log10) ([7]; 10000 nM): -0.0005 ± 0.015 | level (log10) [8]: -0.0165 ± 0.0092 | level (log10) ([9]; 6700 nM): 0.017 ± 0.016 | level (log10) ([9]; 20000 nM): 0.013 ± 0.023 | level (log10) ([9]; 60000 nM): 0.0085 ± 0.026

MyoF:PAI-I
level (log10) [1]: 0 ± 0.042 | level (log10) [2]: -0.053 | level (log10) ([3]; 6700 nM): 0.0095 ± 0.0035 | level (log10) ([3]; 20000 nM): 0.013 ± 0.0085 | level (log10) ([4]; 6700 nM): -0.001 ± 0.0085 | level (log10) ([4]; 20000 nM): 0.02 ± 0.013 | level (log10) ([4]; 60000 nM): 0.01 ± 0.0042 | level (log10) ([5]; 6700 nM): 0.009 ± 0.0057 | level (log10) ([5]; 20000 nM): 0.01 ± 0.017 | level (log10) ([5]; 60000 nM): 0.004 ± 0.014 | level (log10) ([6]; 6700 nM): -0.0225 ± 0.011 | level (log10) ([6]; 20000 nM): -0.023 ± 0.024 | level (log10) ([6]; 60000 nM): -0.0305 ± 0.029 | level (log10) ([7]; 1100 nM): 0.009 ± 0.0042 | level (log10) ([7]; 3300 nM): 0.014 ± 0.013 | level (log10) ([7]; 10000 nM): 0.0205 ± 0.0064 | level (log10) [8]: -0.0075 ± 0.021 | level (log10) ([9]; 6700 nM): 0.0125 ± 0.011 | level (log10) ([9]; 20000 nM): 0.007 ± 0.011 | level (log10) ([9]; 60000 nM): 0.0095 ± 0.016

CASM3C:CD106/VCAM-1
level (log10) [1]: -0.128 ± 0.02 | level (log10) [2]: -0.041 | level (log10) ([3]; 6700 nM): -0.0225 ± 0.012 | level (log10) ([3]; 20000 nM): -0.104 ± 0.028 | level (log10) ([4]; 6700 nM): -0.017 ± 0.03 | level (log10) ([4]; 20000 nM): -0.013 ± 0.024 | level (log10) ([4]; 60000 nM): 0.0025 ± 0.047 | level (log10) ([5]; 6700 nM): 0.0015 ± 0.0035 | level (log10) ([5]; 20000 nM): -0.008 ± 0.027 | level (log10) ([5]; 60000 nM): -0.0045 ± 0.0064 | level (log10) ([6]; 6700 nM): -0.033 ± 0.011 | level (log10) ([6]; 20000 nM): -0.0165 ± 0.00071 | level (log10) ([6]; 60000 nM): 0.019 ± 0.017 | level (log10) ([7]; 1100 nM): -0.004 ± 0.024 | level (log10) ([7]; 3300 nM): 0 ± 0.023 | level (log10) ([7]; 10000 nM): -0.0105 ± 0.019 | level (log10) [8]: -0.0895 ± 0.019 | level (log10) ([9]; 6700 nM): -0.015 ± 0.03 | level (log10) ([9]; 20000 nM): -0.0205 ± 0.00071 | level (log10) ([9]; 60000 nM): 0.006 ± 0.027

BE3C:tPA
level (log10) [1]: -0.077 ± 0.0099 | level (log10) [2]: -0.032 | level (log10) ([3]; 6700 nM): -0.1 ± 0.014 | level (log10) ([3]; 20000 nM): -0.234 ± 0.011 | level (log10) ([4]; 6700 nM): -0.005 ± 0.0014 | level (log10) ([4]; 20000 nM): -0.009 ± 0.014 | level (log10) ([4]; 60000 nM): -0.0075 ± 0.022 | level (log10) ([5]; 6700 nM): -0.037 ± 0.023 | level (log10) ([5]; 20000 nM): -0.0505 ± 0.026 | level (log10) ([5]; 60000 nM): -0.0365 ± 0.022 | level (log10) ([6]; 6700 nM): -0.0515 ± 0.025 | level (log10) ([6]; 20000 nM): -0.0285 ± 0.036 | level (log10) ([6]; 60000 nM): -0.038 ± 0.0085 | level (log10) ([7]; 1100 nM): -0.0125 ± 0.011 | level (log10) ([7]; 3300 nM): -0.033 ± 0.011 | level (log10) ([7]; 10000 nM): -0.008 ± 0.016 | level (log10) [8]: 0.0365 ± 0.012 | level (log10) ([9]; 6700 nM): -0.0075 ± 0.00071 | level (log10) ([9]; 20000 nM): -0.013 ± 0.038 | level (log10) ([9]; 60000 nM): 0.015 ± 0.021

CASM3C:LDLR
level (log10) [1]: 0.001 ± 0.028 | level (log10) [2]: -0.028 | level (log10) ([3]; 6700 nM): -0.044 ± 0.025 | level (log10) ([3]; 20000 nM): -0.079 ± 0.033 | level (log10) ([4]; 6700 nM): -0.052 ± 0.03 | level (log10) ([4]; 20000 nM): -0.0235 ± 0.025 | level (log10) ([4]; 60000 nM): 0.0035 ± 0.035 | level (log10) ([5]; 6700 nM): 0.0005 ± 0.0035 | level (log10) ([5]; 20000 nM): -0.02 ± 0.014 | level (log10) ([5]; 60000 nM): 0.0015 ± 0.019 | level (log10) ([6]; 6700 nM): -0.011 | level (log10) ([6]; 20000 nM): 0.001 ± 0.013 | level (log10) ([6]; 60000 nM): 0.004 ± 0.014 | level (log10) ([7]; 1100 nM): -0.0055 ± 0.0021 | level (log10) ([7]; 3300 nM): -0.0095 ± 0.0064 | level (log10) ([7]; 10000 nM): 0 ± 0.035 | level (log10) [8]: 0.0385 ± 0.023 | level (log10) ([9]; 6700 nM): 0.016 ± 0.0042 | level (log10) ([9]; 20000 nM): 0.0175 ± 0.022 | level (log10) ([9]; 60000 nM): 0.03 ± 0.042

HDF3CGF:TIMP-2
level (log10) [1]: -0.104 ± 0.066 | level (log10) [2]: -0.012 | level (log10) ([3]; 6700 nM): -0.115 ± 0.013 | level (log10) ([3]; 20000 nM): -0.408 ± 0.017 | level (log10) ([4]; 6700 nM): -0.0215 ± 0.086 | level (log10) ([4]; 20000 nM): -0.0155 ± 0.088 | level (log10) ([4]; 60000 nM): -0.025 ± 0.075 | level (log10) ([5]; 6700 nM): -0.052 ± 0.042 | level (log10) ([5]; 20000 nM): -0.069 ± 0.025 | level (log10) ([5]; 60000 nM): -0.1 ± 0.018 | level (log10) ([6]; 6700 nM): -0.013 ± 0.014 | level (log10) ([6]; 20000 nM): 0.0045 ± 0.019 | level (log10) ([6]; 60000 nM): 0.033 ± 0.0042 | level (log10) ([7]; 1100 nM): 0.001 ± 0.0042 | level (log10) ([7]; 3300 nM): -0.045 ± 0.016 | level (log10) ([7]; 10000 nM): -0.0325 ± 0.013 | level (log10) [8]: 0.029 ± 0.013 | level (log10) ([9]; 6700 nM): -0.004 ± 0.0099 | level (log10) ([9]; 20000 nM): 0.024 ± 0.028 | level (log10) ([9]; 60000 nM): -0.0225 ± 0.026
